Data from patent US4559323A, “A41030 Antibiotics” (Eli Lilly and Company, priority 1984, dated 1985).
≈ marks a conversion by molar mass, not a printed value.

What was measured:
[1] = test system: Haemophilus parainfluenzae; assay: Agar-dilution MIC; type: cell-based; details: Table 18, 24 hours
Hemophilus influenzae = assay: Agar-dilution MIC; type: cell-based
[2] = test system: Streptococcus sp. Group B; assay: Agar-dilution MIC; type: cell-based; details: Table 18, 24 hours
Excerpt: The in vitro activity of antibiotic A41030 factors A and B against a number of representative aerobic, gram-positive bacteria, including Streptococcus sp. Group D, has been determined using a standard agar-dilution assay.

Bacteroides vulgatis = assay: Agar-dilution MIC (anaerobes); type: cell-based; details: Table 14; Bacteroides vulgatis 1211
Viridans streptococcus = assay: Agar-dilution MIC; type: cell-based; details: Table 11
Staphylococcus aureus = assay: Disc-plate sensitivity procedure; type: cell-based; details: Table 8
Fusobacterium symbiosum = assay: Agar-dilution MIC (anaerobes); type: cell-based; details: Table 14; Fusobacterium symbiosum 1470
Escherichia coli EC14 = assay: Disc-plate sensitivity procedure; type: cell-based
Streptococcus faecalis = assay: Agar-dilution MIC; type: cell-based; details: Table 7; Streptococcus faecalis X66
Shigella flexneri = details: Table 11; Shigella flexneri SH-4
Excerpt: The agar-dilution procedure described by the International Collaborative study (ICS) group was used to determine the minimum inhibitory concentrations (MIC's).

[3] = test system: Streptococcus pyogenes C203; assay: Disc-plate sensitivity procedure; type: cell-based
Escherichia coli = assay: Agar-dilution MIC; type: cell-based; details: Table 17; 24 hours; Escherichia coli EC14
[4] = test system: Streptococcus pneumoniae Park I; assay: Disc-plate sensitivity procedure; type: cell-based
Neisseria sp. = assay: Agar-dilution MIC; type: cell-based; details: Table 10
Description: The test results are recorded in Table 10, which follows.

pseudorabies = details: in vitro at 20 mcg./ml.
Salmonella typhi = assay: Agar-dilution MIC; type: cell-based; details: Table 17, 24 hours
Clostridium septicum = assay: Agar-dilution MIC (anaerobes); type: cell-based; details: Table 14; Clostridium septicum 1128
[5] = mice, administered intraperitoneally

For NC1C(=O)NC2Cc3ccc(c(Cl)c3)Oc3cc4cc(c3O)Oc3ccc(cc3Cl)C(O)C3NC(=O)C(NC(=O)C4NC(=O)C(NC2=O)c2cc(O)cc(c2)Oc2cc1ccc2O)c1cc(Cl)c(O)c(c1)-c1c(O)cc(O)cc1C(C(=O)O)NC3=O (stereo not shown) [A41030 factor A], which MIC ([1]; Haemophilus parainfluenzae 7901) is on record?
The MIC was 16 µg/mL (≈ 13 µM).

And the MIC ([1]; Haemophilus parainfluenzae 9796)?
Its MIC is 16 µg/mL (≈ 13 µM).

What about the MIC (Hemophilus influenzae; Table 9, strain 75-312) of the same compound?
The MIC was 8 µg/mL (≈ 6.49 µM).

And the MIC (Hemophilus influenzae; Table 9, strain 75-313)?
Its MIC is 16 µg/mL (≈ 13 µM).

And the MIC (Hemophilus influenzae; Table 9, strain 75-364)?
The MIC was 16 µg/mL (≈ 13 µM).

What about the MIC (Hemophilus influenzae; Table 9, strain 75-465) of the same compound?
Its MIC is 32 µg/mL (≈ 25.9 µM).

What about the MIC (Hemophilus influenzae; Table 9, strain 75-19300) of the same compound?
Its MIC is 16 µg/mL (≈ 13 µM).

What about the MIC (Hemophilus influenzae; Table 9, strain 75-90383) of the same compound?
The MIC was 16 µg/mL (≈ 13 µM).

What about the MIC (Hemophilus influenzae; Table 9, strain 4842) of the same compound?
The MIC was 8 µg/mL (≈ 6.49 µM).

And the MIC (Hemophilus influenzae; Table 9, strain A. Hall)?
The MIC was 16 µg/mL (≈ 13 µM).

And the MIC (Hemophilus influenzae; Table 9, strain Bruno)?
The MIC was 16 µg/mL (≈ 13 µM).

What about the MIC (Hemophilus influenzae; Table 9, strain G. Newton) of the same compound?
The MIC was 32 µg/mL (≈ 25.9 µM).

And the MIC (Hemophilus influenzae; Table 9, strain Howard)?
The MIC was 16 µg/mL (≈ 13 µM).

And the MIC (Hemophilus influenzae; Table 9, strain Miller)?
Its MIC is 16 µg/mL (≈ 13 µM).

What about the MIC (Hemophilus influenzae; Table 9, strain O. Steele) of the same compound?
Its MIC is 16 µg/mL (≈ 13 µM).

What about the MIC (Hemophilus influenzae; Table 9, strain P. Wylie) of the same compound?
The MIC was 16 µg/mL (≈ 13 µM).

And the MIC (Hemophilus influenzae; Table 9, strain R251)?
The MIC was 16 µg/mL (≈ 13 µM).

And the MIC (Hemophilus influenzae; Table 9, strain R259)?
Its MIC is 16 µg/mL (≈ 13 µM).

And the MIC (Hemophilus influenzae; Table 9, strain R272)?
Its MIC is 16 µg/mL (≈ 13 µM).

What about the MIC (Hemophilus influenzae; Table 9, strain R274) of the same compound?
Its MIC is 16 µg/mL (≈ 13 µM).

And the MIC (Hemophilus influenzae; Table 9, strain S. Ford)?
Its MIC is 16 µg/mL (≈ 13 µM).

What about the MIC (Hemophilus influenzae; Table 17, 24 hours, Haemophilus influenzae 251) of the same compound?
Its MIC is 2 µg/mL (≈ 1.62 µM).

And the MIC (Hemophilus influenzae; Table 17, 24 hours, Haemophilus influenzae Brun)?
Its MIC is 8 µg/mL (≈ 6.49 µM).

What about the MIC (Hemophilus influenzae; Table 18, 24 hours, Haemophilus influenzae 76) of the same compound?
The MIC was 4 µg/mL (≈ 3.24 µM).

What about the MIC (Hemophilus influenzae; Table 18, 24 hours, Haemophilus influenzae 312) of the same compound?
The MIC was 2 µg/mL (≈ 1.62 µM).

And the MIC (Hemophilus influenzae; Table 18, 24 hours, Haemophilus influenzae 4842)?
Its MIC is 2 µg/mL (≈ 1.62 µM).

And the MIC (Hemophilus influenzae; Table 18, 24 hours, Haemophilus influenzae 16836)?
Its MIC is 4 µg/mL (≈ 3.24 µM).

What about the MIC (Hemophilus influenzae; Table 18, 24 hours, Haemophilus influenzae Bond) of the same compound?
Its MIC is 2 µg/mL (≈ 1.62 µM).

And the MIC (Hemophilus influenzae; Table 18, 24 hours, Haemophilus influenzae C.L.)?
Its MIC is 4 µg/mL (≈ 3.24 µM).

And the MIC (Hemophilus influenzae; Table 18, 24 hours, Haemophilus influenzae Mx366)?
The MIC was 2 µg/mL (≈ 1.62 µM).

And the MIC (Hemophilus influenzae; Table 18, 24 hours, Haemophilus influenzae Mx371)?
The MIC was 2 µg/mL (≈ 1.62 µM).

What about the MIC ([2]; Streptococcus sp. Group B 5) of the same compound?
Its MIC is 1 µg/mL (≈ 0.811 µM).

And the MIC ([2]; Streptococcus sp. Group B 14)?
Its MIC is 0.06 µg/mL (≈ 0.0486 µM).

What about the MIC (Bacteroides vulgatis) of the same compound?
Its MIC is 32 µg/mL (≈ 25.9 µM).

What about the MIC (Viridans streptococcus; Viridans streptococcus SM-1134) of the same compound?
The MIC was 0.5 µg/mL (≈ 0.405 µM).

What about the MIC (Viridans streptococcus; Viridans streptococcus SSI-910) of the same compound?
Its MIC is 0.25 µg/mL (≈ 0.203 µM).

And the MIC (Viridans streptococcus; Viridans streptococcus SSII-895)?
The MIC was 0.25 µg/mL (≈ 0.203 µM).

And the Zone diameter (Staphylococcus aureus; S. aureus 3055 benzylpenicillin-susceptible, 10 μg./disc)?
The Zone diameter was 17.2 mm.

And the Zone diameter (Staphylococcus aureus; S. aureus 3055 benzylpenicillin-susceptible, 100 μg./disc)?
The Zone diameter was 20.8 mm.

What about the Zone diameter (Staphylococcus aureus; S. aureus 3074 benzylpenicillin-resistant, 10 μg./disc) of the same compound?
The Zone diameter was 16.7 mm.

What about the Zone diameter (Staphylococcus aureus; S. aureus 3074 benzylpenicillin-resistant, 100 μg./disc) of the same compound?
The Zone diameter was 19.8 mm.

What about the Zone diameter (Staphylococcus aureus; S. aureus 3130 benzylpenicillin- and methicillin-resistant, 10 μg./disc) of the same compound?
The Zone diameter was 17.4 mm.

And the Zone diameter (Staphylococcus aureus; S. aureus 3130 benzylpenicillin- and methicillin-resistant, 100 μg./disc)?
Its Zone diameter is 21.4 mm.

What about the MIC (Fusobacterium symbiosum) of the same compound?
Its MIC is 1.0 µg/mL (≈ 0.811 µM).

And the Zone diameter (Escherichia coli EC14; Table 8, 10 μg./disc)?
The Zone diameter was 0 mm.

And the Zone diameter (Escherichia coli EC14; Table 8, 100 μg./disc)?
Its Zone diameter is 8.0 mm.

And the MIC (Streptococcus faecalis)?
The MIC was under 0.5 µg/mL.

What about the MIC (Shigella flexneri) of the same compound?
The MIC was 64 µg/mL (≈ 51.9 µM).

What about the Zone diameter ([3]; Table 8, 10 μg./disc) of the same compound?
The Zone diameter was 12.0 mm.

And the Zone diameter ([3]; Table 8, 100 μg./disc)?
Its Zone diameter is 15.0 mm.

And the MIC (Escherichia coli)?
Its MIC is 128 µg/mL (≈ 104 µM).

And the Zone diameter ([4]; Table 8, 10 μg./disc)?
Its Zone diameter is 15.0 mm.

And the Zone diameter ([4]; Table 8, 100 μg./disc)?
The Zone diameter was 17.0 mm.

What about the MIC (Neisseria sp.; strain L. Nance) of the same compound?
Its MIC is 4.0 µg/mL (≈ 3.24 µM).

What about the MIC (Neisseria sp.; strain Mitchell) of the same compound?
The MIC was 4.0 µg/mL (≈ 3.24 µM).

And the MIC (Neisseria sp.; strain Sanders)?
Its MIC is 1.0 µg/mL (≈ 0.811 µM).

What about the MIC (Neisseria sp.; strain Schultz) of the same compound?
Its MIC is 8.0 µg/mL (≈ 6.49 µM).

And the MIC (Neisseria sp.; strain Woods)?
Its MIC is 4.0 µg/mL (≈ 3.24 µM).

What about the activity against pseudorabies (pseudorabies) of the same compound?
Its activity against pseudorabies is “shown activity”.

And the MIC (Salmonella typhi; Salmonella typhi 1335)?
The MIC was over 128 µg/mL.

And the MIC (Salmonella typhi; Salmonella typhi X514)?
Its MIC is over 128 µg/mL.

What about the MIC (Clostridium septicum) of the same compound?
Its MIC is 2 µg/mL (≈ 1.62 µM).

What about the LD50 [5] of the same compound?
The LD50 was over 300 mg/kg.

And the acute toxicity [5]?
Its acute toxicity is over 300 mg/kg.
